# Entries after “also recorded” stand apart in the source; their conditions may differ.
# Tests used:
# Type in all cases: cell-based, human
# [1] = system: de novo protein synthesis; experiment: HPG Click-iT labeling of nascent proteins; details: MB135-iDUX4ca myoblasts, 20-96 hours after a pulse
# Method: Cells were incubated for 30 minutes in DMEM or RPMI media depleted for methionine and cysteine (Gibco), followed by a 1-hour incubation in methionine-depleted media supplemented with 200 μM HPG (Sigma). Cells were fixed with 4% paraformaldehyde (Electron Microscopy Sciences) diluted in PBS for 10 minutes at room temperature and stained with Click-iT HPG Alexa Fluor 488 Protein Synthesis Assay Kit (Invitrogen) according to manufacturer's protocol.
# H3.X/Y = experiment: Immunoblot of DUX4 target H3.X/Y proteins; details: MB135 cells, continuous or pulsed protocol
# Method: (§1) Protein samples were harvested in RIPA buffer [150 mM NaCl, 1% NP-40, 0.5% Na-deocycholate, 1% SDS, 25 mM Tris-HCl pH7.4] supplemented with protease and phosphatase inhibitor tablets (Pierce), followed by sonication in Diagenode Bioruptor. Lysate was cleared by centrifugation at 16000×g and quantified using a Pierce BCA assay (Thermo Fisher Scientific). Samples were run on NuPAGE precast polyacrylamide gels (Invitrogen) and transferred to PVDF membrane. Membranes were blocked in PBS containing 0.1% Tween-20 and 5% non-fat dry milk before overnight incubation at 4° C. with primary antibodies (see resource table for a list of antibodies used in this study). Membranes were incubated with horseradish peroxidase-conjugated secondary antibodies for 1 hour at room temperature and SuperSignal chemiluminescent substrate (Thermo Scientific) was used for detection on film with a Mini-medical 90 processor. Membranes were stripped with Restore Western Blot Stripping Buffer (Pierce).
# [2] = system: polysome association of mRNAs; experiment: Polysome profiling with RNA-seq; details: DUX4 pulse+IFNG versus IFNG
# Method: Polysome profiling was performed using three 70% confluent 15 cm plates of MB135iDUX4 myoblasts per treatment condition (n=3). MB135iDUX4 myoblasts were pulsed with or without doxycycline for 4 hours, incubated for 48 hours, supplemented with 50 ng/mL IFNG for 16 hours, and harvested at a terminal time point of 68 hours. To harvest, culture medium was supplemented with 100 μg/mL cycloheximide (CHX; Sigma) and cells were incubated at 37° C. for 10 minutes. Media was aspirated and each 15 cm plate of adherent cells was rinsed with 25 mL ice-cold PBS supplemented with 100 μg/mL cycloheximide, lifted with 0.25% Trypsin-EDTA supplemented with CHX, and resuspended in growth media supplemented with CHX. Cells were pelleted at 300 RCF and washed twice with ice-cold PBS supplemented with CHX. Cell pellets were flash frozen in liquid nitrogen and stored at −80° C. Cells were lysed with Polysome Lysis Buffer (10 mM Tris pH 8, 140 mM NaCl, 7.5 mM MgCl2, 0.25% NP-40, 0.1% Triton X-100, 150 μg/mL CHX, 20 mM DTT, 640U/mL SUPERase-In RNase Inhibitor) and clarified before quantification with the Bio-Rad Protein Assay. 1.5 mg of clarified lysate was loaded onto a 10-50% sucrose gradient prepared in DEPC-treated water with 25 mM Tris pH 7.4, 25 mM NaCl, 5 mM MgCl2, 100 μg/mL heparin, and 2 mM DTT. Gradients were fractionated using a Biocomp Piston Gradient Fractionator. Samples were resuspended in Trizol and Drosophila S2 cells were added as an internal spike-in control. RNA was extracted using the Direct-zol RNA Miniprep Kit (Zymo Research). Relative mRNA abundance for each sample was normalized to Drosophila spike-in to account for differences in RNA extraction efficiency (Taruttis et al., 2017).
# Total RNA was isolated using the NucleoSpin RNA kit (Machery-Nagel) or Direct-zol RNA Mini-Prep Kit (Zymo Research) according to manufacturer's instructions. RNA-seq libraries were prepared using the Illumina TruSeq RNA Sample Prep v2 Kit and sequenced using 50 bp paired-end sequencing on the Illumina NextSeq platform by the Fred Hutchinson Cancer Center Genomics Core.
# [3] = system: eIF2-alpha, RPS6, 4EBP1, eIF4E, eEF2; experiment: Immunoblot of translational regulators; details: MB135 myoblasts, 4-hour pulse of doxycycline
# Method: as §1
substance,measurement,setting,value
DUX4: human DUX4 protein SEQ ID NO:3 expressed from doxycycline inducible codon altered transgene SEQ ID NO:2,nascent protein synthesis by HPG labeling,[1],dramatic reduction in HPG-labeled peptides; also recorded: peak suppression occurred forty-four hours after a pulse of DUX4; also recorded: HPG signal largely recovered by ninety-two hours
same,induction of DUX4 target H3.X/Y proteins,H3.X/Y,activates a DUX4-regulated gene H3.X/Y in both protocols
same,induction of DUX4 target H3.X/Y proteins,H3.X/Y; listed as full-length DUX4,are induced by the full-length DUX4
same,mRNAs reduced in the high polysome fraction,"[2]; log 2FC<−1, p-adj<0.01",7765 genes
same,polysome-bound mRNAs significantly upregulated,"[2]; log 2FC>1, p-adj<0.01",256
same,genes with decreased polysome association (high/sub ratio),"[2]; |log 2FC>1|, p-adj<0.01",5800 genes
same,genes with increased polysome association (high/sub ratio),"[2]; |log 2FC>1|, p-adj<0.01",323 genes
same,polysome association of specific mRNAs,[2]; high-to-sub polysome ratio,"TOP mRNAs remain associated with polysomes; also recorded: HLA-A, HLA-B, and HLA-C mRNAs showed reduced polysome association; also recorded: PSMB8, PSMB9, and PSMB10 mRNAs remained associated with polysomes"
same,status of translational regulators after a pulse of transgene,[3],sufficient to induce phosphorylation of eIF2-alpha; also recorded: brief reduction in phosphorylation of ribosomal protein S6 (RPS6); also recorded: prolonged dephosphorylation of 4EBP1 and a correlated loss of phosphorylated eukaryotic initiation factor 4E (eIF4E); also recorded: increased phosphorylation of eukaryotic elongation factor 2 (eEF2) on threonine 56; also recorded: enhanced phosphorylation of eEF2 at Thr56 and reduced phosphorylation of eIF4E at Ser209

# Source: patent publication US20250339531A1, “DUX4 POLYPEPTIDES AND NUCLEIC ACIDS FOR TREATING INFLAMMATORY AND AUTOIMMUNE CONDITIONS” (Fred Hutchinson Cancer Center, priority 2021, published 2025)
